This is an account of results in US11090304B2 (Amgen Inc., priority 2018, dated 2021).

In assay [1] the target is GDP-bound KRAS protein (aa 1-169), containing both G12C and C118A amino acid substitutions (Homo sapiens, UniProt P01116, C118A/G12C). The assay is described as follows: Coupled nucleotide exchange assay (SOS-mediated, AlphaScreen). Type of assay: biochemical. To be noted: 5 min compound pre-incubation. On the technique in general: Alpha assays give light when donor and acceptor beads are brought close together.
Chain of GDP-bound KRAS protein (aa 1-169), containing both G12C and C118A amino acid substitutions (P01116 1-169 isoform P01116-2 G12C/C118A): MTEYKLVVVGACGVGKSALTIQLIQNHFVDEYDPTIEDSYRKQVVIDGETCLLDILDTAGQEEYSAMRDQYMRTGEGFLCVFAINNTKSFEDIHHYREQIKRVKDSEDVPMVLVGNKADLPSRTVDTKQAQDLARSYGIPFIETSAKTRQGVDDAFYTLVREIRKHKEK

Assay [2] deals with Phosphorylation of ERK1/2 in MIA PaCa-2 cells. Kind of assay: Phospho-ERK1/2 MSD assay in MIA PaCa-2 cells. Type of assay: cell-based. To be noted: Homo sapiens, MIA PaCa-2, 2 h, read-out: p-ERK IC50 (2 h; MIA PaCa-2), 2 h compound treatment. In short, it runs like this: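 MSD electrochemiluminescence readout of phospho-ERK1/2 in whole-cell lysates, IC50 by 4-parameter logistic fit. Compound titrations were applied for 2 or 4 h at 37 °C, 5% CO2, followed by 10 ng/mL EGF stimulation for 10 min before lysis.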

The structures appear in SMILES notation.

The term IC50 denotes the midpoint of a concentration-inhibition curve.

Take `C=CC(=O)N1CCN(c2nc(=O)n(-c3cccnc3CC(C)C)c3nc(-c4ccccc4F)c(Cl)cc23)[C@@H](C)C1` [Example 101, 6-Chloro-7-(2-fluorophenyl)-4-((2S)-2-methyl-4-(2-propenoyl)-1-piperazinyl)-1-(2-(2-methylpropyl)-3-pyridinyl)pyrido[2,3-d]pyrimidin-2(1H)-one]: the “Coupled exchange IC50 (5 min)” value in assay [1] was 0.147 | nda μM. For the same compound, in assay [2], the IC50 came out at 148 nM.
Take `C=CC(=O)N1CCN(c2nc(=O)n(-c3c(C)cccc3C(C)C)c3nc(-c4ccccc4F)c(C)cc23)[C@@H](C)C1` [Example 102, 7-(2-Fluorophenyl)-6-methyl-1-(2-methyl-6-(2-propanyl)phenyl)-4-((2S)-2-methyl-4-(2-propenoyl)-1-piperazinyl)pyrido[2,3-d]pyrimidin-2(1H)-one]: the “Coupled exchange IC50 (5 min)” value in assay [1] is given as 0.421 | nda μM. Further, the IC50 in assay [2] came to 667 nM.
For `C=CC(=O)N1CCN(c2nc(=O)n(-c3c(CC)cccc3CC)c3cc(-c4ccccc4F)c(Cl)cc23)[C@@H](C)C1` [Example 103, 6-Chloro-1-(2,6-diethylphenyl)-7-(2-fluorophenyl)-4-((2S)-2-methyl-4-(2-propenoyl)-1-piperazinyl)-2(1H)-quinazolinone], in that order: 0.099 | nda μM and 178 nM.
In the same order, the values of `C=CC(=O)N1CCN(c2nc(=O)n(-c3ncccc3C(C)C)c3cc(-c4ccccc4F)c(Cl)cc23)[C@@H](C)C1` [Example 104, 6-Chloro-7-(2-fluorophenyl)-4-((2S)-2-methyl-4-(2-propenoyl)-1-piperazinyl)-1-(3-(2-propanyl)-2-pyridinyl)-2(1H)-quinazolinone] are 0.062 | nda μM and 78 nM.
In the same order, the values of `C=CC(=O)N1CCN(c2nc(=O)n(-c3scnc3C(C)C)c3cc(-c4ccccc4F)c(Cl)cc23)[C@@H](C)C1` [Example 105, 6-Chloro-7-(2-fluorophenyl)-4-((2S)-2-methyl-4-(2-propenoyl)-1-piperazinyl)-1-(4-(2-propanyl)-1,3-thiazol-5-yl)-2(1H)-quinazolinone] are 0.051 | nda μM and 65 nM.
Consider `C=CC(=O)N1CCN(c2nc(=O)n(-c3c(C)cccc3C(C)C)c3cc(-c4c(O)cccc4F)c(Cl)cc23)[C@@H](C)C1` [Example 106, 6-Chloro-7-(2-fluoro-6-hydroxyphenyl)-1-(2-methyl-6-(2-propanyl)phenyl)-4-((2S)-2-methyl-4-(2-propenoyl)-1-piperazinyl)-2(1H)-quinazolinone], for which the “Coupled exchange IC50 (5 min)” value in assay [1] is reported as 0.074 | nda μM. In addition, the IC50 in assay [2] was found to be 105 nM.
For `C=CC(=O)N1CCN(c2nc(=O)n(-c3ccccc3C(C)C)c3cc(-c4ccccc4F)c(Cl)nc23)[C@@H](C)C1` [Example 110, 6-Chloro-7-(2-fluorophenyl)-4-((2S)-2-methyl-4-(2-propenoyl)-1-piperazinyl)-1-(2-(2-propanyl)phenyl)pyrido[3,2-d]pyrimidin-2(1H)-one], in that order: 0.166 | nda μM and 426 nM.
As to `C=CC(=O)N1CCN(c2nc(=O)n(-c3c(C)ccnc3C(C)C)c3nc(-c4ccccc4F)c(Cl)nc23)[C@@H](C)C1` [Example 111, 6-Chloro-7-(2-fluorophenyl)-1-(4-methyl-2-(2-propanyl)-3-pyridinyl)-4-((2S)-2-methyl-4-(2-propenoyl)-1-piperazinyl)-2(1H)-pteridinone], the “Coupled exchange IC50 (5 min)” value in assay [1] is 0.174 | nda μM. Besides, the IC50 in assay [2] was found to be 195 nM.
As to `C=CC(=O)N1CCN(c2nc(=S)n(-c3c(CC)cccc3CC)c3cc(-c4ccccc4F)c(Cl)cc23)[C@@H](C)C1` [Example 116, 1-((3S)-4-(6-Chloro-1-(2,6-diethylphenyl)-7-(2-fluorophenyl)-2-sulfanylidene-1,2-dihydro-4-quinazolinyl)-3-methyl-1-piperazinyl)-2-propen-1-one], in assay [1], the “Coupled exchange IC50 (5 min)” value is 0.232 | nda μM. Besides, the IC50 in assay [2] turned out to be 543 nM.
For `C=CC(=O)N1CCN(c2cc(=O)n(-c3ccccc3C(C)C)c3nc(-c4ccccc4F)c(Cl)cc23)[C@@H](C)C1` [Example 126, 6-Chloro-7-(2-fluorophenyl)-4-((2S)-2-methyl-4-(2-propenoyl)-1-piperazinyl)-1-(2-(2-propanyl)phenyl)-1,8-naphthyridin-2(1H)-one], in that order: 2.05 | nda μM and 1720 nM.
On to `C=CC(=O)N1CCN(c2nc(=O)n(-c3c(C(=O)O)cccc3C(C)C)c3nc(-c4ccccc4F)c(Cl)cc23)[C@@H](C)C1` [Example 132, 2-(6-Chloro-7-(2-fluorophenyl)-4-((2S)-2-methyl-4-(2-propenoyl)-1-piperazinyl)-2-oxopyrido[2,3-d]pyrimidin-1(2H)-yl)-3-(2-propanyl)benzoic acid], for which, in assay [1], the “Coupled exchange IC50 (5 min)” value is given as 0.107 | nda μM. In addition, in assay [2], the IC50 came out at 10000 nM.
In the same order, the values of `C=CC(=O)N1CCN(c2nc(=O)n(-c3c(Cl)ncnc3C(C)C)c3nc(-c4ccccc4F)c(Cl)cc23)[C@@H](C)C1` [Example 133, 6-Chloro-1-(4-chloro-6-(2-propanyl)-5-pyrimidinyl)-7-(2-fluorophenyl)-4-((2S)-2-methyl-4-(2-propenoyl)-1-piperazinyl)pyrido[2,3-d]pyrimidin-2(1H)-one] are 0.119 | nda μM and 198 nM.
In the case of `C=CC(=O)N1CCN(c2nc(=O)n(-c3c(C)cc(N)nc3C(C)C)c3nc(-c4ccccc4F)c(Cl)cc23)[C@@H](C)C1` [Example 136, 1-(6-Amino-4-methyl-2-(2-propanyl)-3-pyridinyl)-6-chloro-7-(2-fluorophenyl)-4-((2S)-2-methyl-4-(2-propenoyl)-1-piperazinyl)pyrido[2,3-d]pyrimidin-2(1H)-one], in assay [1], the “Coupled exchange IC50 (5 min)” value is 0.135 | nda μM. The IC50 in assay [2] came out at 121 nM.
For the compound `C=CC(=O)N1CCN(c2nc(=O)n(-c3c(C)cc(O)nc3C(C)C)c3nc(-c4ccccc4F)c(Cl)cc23)[C@@H](C)C1` [Example 137, 6-chloro-7-(2-fluorophenyl)-1-(4-methyl-6-oxo-2-(2-propanyl)-1,6-dihydro-3-pyridinyl)-4-((2S)-2-methyl-4-(2-propenoyl)-1-piperazinyl)pyrido[2,3-d]pyrimidin-2(1H)-one], the “Coupled exchange IC50 (5 min)” value in assay [1] was 0.5 | nda μM. For the same compound, in assay [2], the half-maximal inhibitory concentration (IC50) was determined as 1790 nM.
Consider `C=CC(=O)N1CCN(c2nnc(-c3c(C(C)C)cccc3C(C)C)c3nc(-c4ccccc4F)c(Cl)cc23)[C@@H](C)C1` [Example 138, 1-((3S)-4-(3-Chloro-8-(2,6-di(2-propanyl)phenyl)-2-(2-fluorophenyl)pyrido[2,3-d]pyridazin-5-yl)-3-methyl-1-piperazinyl)-2-propen-1-one], for which the “Coupled exchange IC50 (5 min)” value in assay [1] is listed as 1.75 | nda μM. Moreover, the IC50 in assay [2] was 1590 nM.
Turning to `C=CC(=O)N1CCN(c2nc(=O)n(-c3c(C(C)C)nc(N)nc3C(C)C)c3nc(-c4ccccc4F)c(Cl)cc23)[C@@H](C)C1` [Example 139, 1-(2-Amino-4,6-di(2-propanyl)-5-pyrimidinyl)-6-chloro-7-(2-fluorophenyl)-4-((2S)-2-methyl-4-(2-propenoyl)-1-piperazinyl)pyrido[2,3-d]pyrimidin-2(1H)-one], in assay [1], the “Coupled exchange IC50 (5 min)” value is recorded as 0.117 | nda μM. Also, the IC50 in assay [2] was 25 nM.
For `C=CC(=O)N1CCN(c2nc(=O)n(-c3c(C(C)C)ncnc3N(C)C)c3nc(-c4ccccc4F)c(Cl)cc23)[C@@H](C)C1` [Example 140, 6-Chloro-1-(4-(dimethylamino)-6-(2-propanyl)-5-pyrimidinyl)-7-(2-fluorophenyl)-4-((2S)-2-methyl-4-(2-propenoyl)-1-piperazinyl)pyrido[2,3-d]pyrimidin-2(1H)-one], in that order: 0.09 | nda μM and 96 nM.
For `C=CC(=O)N1CCN(c2nc(=O)n(-c3c(C)cc(C(=O)O)cc3C(C)C)c3nc(-c4ccccc4F)c(Cl)cc23)[C@@H](C)C1` [Example 141, 4-(6-Chloro-7-(2-fluorophenyl)-4-((2S)-2-methyl-4-(2-propenoyl)-1-piperazinyl)-2-oxopyrido[2,3-d]pyrimidin-1(2H)-yl)-3-methyl-5-(2-propanyl)benzoic acid], in that order: 0.393 | nda μM and 5200 nM.
As for `C=CC(=O)N1CCN(c2nc(=O)n(-c3c(N)cccc3C(C)C)c3nc(-c4ccccc4F)c(Cl)cc23)[C@@H](C)C1` [Example 155, 1-(2-Amino-6-(2-propanyl)phenyl)-6-chloro-7-(2-fluorophenyl)-4-((2S)-2-methyl-4-(2-propenoyl)-1-piperazinyl)pyrido[2,3-d]pyrimidin-2(1H)-one], the “Coupled exchange IC50 (5 min)” value in assay [1] is listed as 0.108 | nda μM. The IC50 in assay [2] came out at 103 nM.
For `C=CC(=O)N1CCN(c2nc(=O)n(-c3c(C)cc(C(=O)OC)cc3C(C)C)c3nc(-c4ccccc4F)c(Cl)cc23)[C@@H](C)C1` [Example 156, Methyl 4-(6-chloro-7-(2-fluorophenyl)-4-((2S)-2-methyl-4-(2-propenoyl)-1-piperazinyl)-2-oxopyrido[2,3-d]pyrimidin-1(2H)-yl)-3-methyl-5-(2-propanyl)benzoate], in that order: 0.057 | nda μM and 80 nM.
